The source made the active and inactive calls.

In one assay the target is T1, Bcl-2-like protein 10 (Homo sapiens, UniProt Q9HD36).
T1 sequence (Q9HD36 whole entry): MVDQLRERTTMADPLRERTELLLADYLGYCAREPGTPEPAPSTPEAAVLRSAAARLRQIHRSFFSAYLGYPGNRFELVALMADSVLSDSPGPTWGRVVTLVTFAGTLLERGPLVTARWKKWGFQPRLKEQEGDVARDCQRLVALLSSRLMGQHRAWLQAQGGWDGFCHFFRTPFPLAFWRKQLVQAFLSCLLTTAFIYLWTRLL
Briefly: displacers of TR3 peptide from Bcl-B, primary screen, selectivity assay for Bfl-1 inhibitor project, biochemical, fluorescence polarization, FITC-TR3 peptide (AID 748). (Fluorescence polarisation rises when a labelled molecule tumbles more slowly, as on binding a larger partner.)

Assay [1] concerns the target T2, Oxysterols receptor LXR-beta (Homo sapiens, UniProt P55055).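 Also: agonist activity at LXR measured by a cell-based luminescence readout across a dose range, run as a counterscreen for daf-12 agonists; HEK293 cells with Gal4-LXR fusion and GAL4-driven luciferase reporter; potency for activation of Gal4-LXR reporter so compounds are agonists.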
T2 sequence (P55055 whole entry): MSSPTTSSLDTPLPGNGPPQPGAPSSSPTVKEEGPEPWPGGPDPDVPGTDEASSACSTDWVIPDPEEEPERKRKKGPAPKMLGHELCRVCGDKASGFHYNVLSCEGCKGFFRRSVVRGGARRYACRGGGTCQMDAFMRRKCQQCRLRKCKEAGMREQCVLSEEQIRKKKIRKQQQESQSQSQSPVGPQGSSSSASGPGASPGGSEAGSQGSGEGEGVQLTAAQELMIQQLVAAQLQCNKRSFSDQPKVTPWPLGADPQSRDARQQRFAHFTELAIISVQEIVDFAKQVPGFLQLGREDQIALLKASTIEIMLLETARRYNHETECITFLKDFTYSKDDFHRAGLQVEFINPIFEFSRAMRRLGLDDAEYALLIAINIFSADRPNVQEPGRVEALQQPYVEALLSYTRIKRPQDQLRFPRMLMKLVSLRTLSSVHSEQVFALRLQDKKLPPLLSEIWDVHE
The format is functional, cell-based.

The target of the next assay is X-box-binding protein 1 (Homo sapiens, UniProt P17861). The format is functional, Cricetulus griseus.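 Also: confirmatory dose-response counter-screen serving a CHOP assay.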
For assay [2], the target named is T3, Aryl hydrocarbon receptor (Homo sapiens, UniProt P35869).
T3 sequence (P35869 whole entry): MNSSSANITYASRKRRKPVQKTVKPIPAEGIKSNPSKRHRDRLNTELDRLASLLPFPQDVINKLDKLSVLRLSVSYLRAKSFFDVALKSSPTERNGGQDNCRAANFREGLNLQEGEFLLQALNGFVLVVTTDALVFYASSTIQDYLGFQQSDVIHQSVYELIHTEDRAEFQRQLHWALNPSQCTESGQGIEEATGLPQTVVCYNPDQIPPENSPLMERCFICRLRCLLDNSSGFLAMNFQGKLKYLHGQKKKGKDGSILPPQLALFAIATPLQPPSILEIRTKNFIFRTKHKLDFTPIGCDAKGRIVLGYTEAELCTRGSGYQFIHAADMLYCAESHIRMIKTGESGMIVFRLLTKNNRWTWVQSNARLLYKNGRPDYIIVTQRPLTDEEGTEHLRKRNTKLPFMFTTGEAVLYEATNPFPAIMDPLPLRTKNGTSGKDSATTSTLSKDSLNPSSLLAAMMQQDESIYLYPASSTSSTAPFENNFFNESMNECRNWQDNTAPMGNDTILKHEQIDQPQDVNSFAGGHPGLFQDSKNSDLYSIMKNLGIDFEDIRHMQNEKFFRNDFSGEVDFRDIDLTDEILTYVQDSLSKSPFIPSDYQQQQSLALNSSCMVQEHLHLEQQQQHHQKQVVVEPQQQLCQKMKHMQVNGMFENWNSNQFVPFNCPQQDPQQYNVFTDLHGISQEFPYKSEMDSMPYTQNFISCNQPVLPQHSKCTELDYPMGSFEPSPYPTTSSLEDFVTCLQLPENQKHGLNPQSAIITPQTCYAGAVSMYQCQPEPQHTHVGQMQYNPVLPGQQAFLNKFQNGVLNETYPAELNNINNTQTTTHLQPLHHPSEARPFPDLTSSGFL
Briefly: Luminescence-based cell-based high throughput dose response assay for activators of the Aryl Hydrocarbon Receptor (AHR). [Related pubchem assays: 2796 (Primary screen (AHR activators in singlicate)), 2845 (Confirmation screen (AHR activators in triplicate)), 434939 (Counterscreen (PXR activators in triplicate)), 2804 (Summary (AHR activators))]. The format is ADME. (Counterscreens check selectivity or assay interference.)

The nature of assay [3]: HEp-2 cell cytotoxicity, dose response, cytotoxicity control for RSV inhibitor project, HTS (AID 2410). The format is functional. Conditions: human respiratory syncytial virus.
Assay [4] deals with DNA damage-inducible transcript 3 protein (Mus musculus, UniProt P35639). The format is functional, Cricetulus griseus.
A further assay concerns the target T4, Protein skinhead-1 (Caenorhabditis elegans, UniProt P34707).
T4 sequence (P34707 whole entry): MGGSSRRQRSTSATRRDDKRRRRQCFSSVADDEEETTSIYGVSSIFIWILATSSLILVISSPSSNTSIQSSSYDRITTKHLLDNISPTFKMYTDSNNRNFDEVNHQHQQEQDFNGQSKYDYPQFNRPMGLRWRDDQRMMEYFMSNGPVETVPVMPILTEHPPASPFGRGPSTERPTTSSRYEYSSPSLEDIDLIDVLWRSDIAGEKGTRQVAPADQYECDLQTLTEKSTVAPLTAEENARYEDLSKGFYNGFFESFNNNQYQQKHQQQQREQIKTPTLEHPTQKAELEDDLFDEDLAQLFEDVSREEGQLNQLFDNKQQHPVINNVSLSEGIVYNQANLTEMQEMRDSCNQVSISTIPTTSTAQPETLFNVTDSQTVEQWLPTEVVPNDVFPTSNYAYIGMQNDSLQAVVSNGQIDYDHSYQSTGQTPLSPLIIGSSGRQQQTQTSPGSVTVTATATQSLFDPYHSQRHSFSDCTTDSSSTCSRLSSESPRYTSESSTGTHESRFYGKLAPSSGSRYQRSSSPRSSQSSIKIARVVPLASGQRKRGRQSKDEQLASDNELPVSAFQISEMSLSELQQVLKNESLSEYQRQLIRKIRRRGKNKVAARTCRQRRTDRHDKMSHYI
The class given is functional.

The next assay has as its target T5, Coagulation factor XII (Homo sapiens, UniProt P00748).
T5 sequence (P00748 whole entry): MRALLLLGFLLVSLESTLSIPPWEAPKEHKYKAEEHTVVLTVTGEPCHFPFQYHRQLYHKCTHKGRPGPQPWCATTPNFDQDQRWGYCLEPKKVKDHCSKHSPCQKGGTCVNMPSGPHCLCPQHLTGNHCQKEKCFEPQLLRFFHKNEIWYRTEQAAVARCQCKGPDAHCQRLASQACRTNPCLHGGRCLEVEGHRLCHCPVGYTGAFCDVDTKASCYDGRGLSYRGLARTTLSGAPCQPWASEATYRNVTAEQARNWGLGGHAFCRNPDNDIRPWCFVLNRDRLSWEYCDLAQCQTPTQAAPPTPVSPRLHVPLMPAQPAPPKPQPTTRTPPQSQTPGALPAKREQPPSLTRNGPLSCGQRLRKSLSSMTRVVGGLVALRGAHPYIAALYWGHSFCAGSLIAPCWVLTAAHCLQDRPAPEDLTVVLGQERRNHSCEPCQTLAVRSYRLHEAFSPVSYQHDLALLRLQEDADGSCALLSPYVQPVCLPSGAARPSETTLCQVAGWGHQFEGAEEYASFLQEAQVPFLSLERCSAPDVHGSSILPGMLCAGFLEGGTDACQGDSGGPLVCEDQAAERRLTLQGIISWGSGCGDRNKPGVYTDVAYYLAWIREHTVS
Briefly: FXIIa inhibitor potency, concentration-response, biochemical (AID 716). The format is functional.

Assay [5] in a line: insulin promoter down-regulators in MIN6 cells, imaging, high-content screening, mouse beta cells (AID 1628). The format is functional.
Assay [6] in a line: Vero E6 cell cytotoxicity, dose response, cytotoxicity control for non-replicating M. tuberculosis project, secondary assay (AID 492998). Conditions: Vero C1008. The format is functional, VeroE6.
Assay [7] in a line: growth suppression of PTEN-null colon cells, dose response, cell-based, HCT116 PTEN knockout (AID 1047).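 Also: HCT116 colon tumor cells with PTEN knocked out; cells exposed to compound for 60 hours before readout; potency for loss of cell viability measured by luminescence.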 The class given is functional.
Assay [8] in a line: cells. The class given is functional.
Assay [9] is described as follows: growth suppression of beta-catenin-knockout colon cells, dose response, cell-based, HCT116, human colon tumor (AID 1045).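 Also: HCT116 colon tumor cells with beta catenin knocked out; cells exposed to compound for 60 hours.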 The format is functional.
The nature of assay [10]: THP-1 cell cytotoxicity, dose response, cytotoxicity control for non-replicating M. tuberculosis project (AID 489025). The format is functional.
A short description of assay [11]: HepG2 cell cytotoxicity, dose response, cytotoxicity control for non-replicating M. tuberculosis project (AID 489018). The class given is functional. As to conditions: Mycobacterium tuberculosis.
Assay [12] is described as follows: cytotoxicity in MIN6 insulinoma cells, dose response, cytotoxicity control, cell-based, mouse insulinoma (AID 2122).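 Also: confirmatory high-throughput counterscreen run to flag cytotoxic compounds; mouse MIN-6 beta cells carrying an insulin promoter eGFP reporter.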 The format is functional.
The subject of a further assay is Vero. Briefly: cells. The format is functional. Conditions: Chlorocebus sabaeus.
Assay [13] in a line: microbe, parasite or virus in culture. The class given is functional. As to conditions: Mycobacterium tuberculosis.
A short description of assay [14]: cells. The format is functional, cell-based.
The target in assay [15] is Induced myeloid leukemia cell differentiation protein Mcl-1 (Homo sapiens, UniProt Q07820). The format is functional.
A short description of assay [16]: cells. The class given is functional, cell-based. The source holds these as a separate data set.

Sequence of DNA damage-inducible transcript 3 protein (P35639 whole entry): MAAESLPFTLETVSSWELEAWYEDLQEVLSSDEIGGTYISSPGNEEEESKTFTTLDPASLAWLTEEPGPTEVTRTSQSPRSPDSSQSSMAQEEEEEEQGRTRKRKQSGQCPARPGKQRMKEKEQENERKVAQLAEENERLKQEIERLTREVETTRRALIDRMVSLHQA
Sequence of X-box-binding protein 1 (P17861 whole entry): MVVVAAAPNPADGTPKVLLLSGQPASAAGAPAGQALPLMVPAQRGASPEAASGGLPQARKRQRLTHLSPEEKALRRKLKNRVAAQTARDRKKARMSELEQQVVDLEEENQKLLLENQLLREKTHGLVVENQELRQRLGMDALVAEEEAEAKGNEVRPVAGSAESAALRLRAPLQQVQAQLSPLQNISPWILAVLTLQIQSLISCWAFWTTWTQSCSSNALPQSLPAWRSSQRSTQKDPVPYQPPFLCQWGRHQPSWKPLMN
Sequence of Induced myeloid leukemia cell differentiation protein Mcl-1 (Q07820 whole entry): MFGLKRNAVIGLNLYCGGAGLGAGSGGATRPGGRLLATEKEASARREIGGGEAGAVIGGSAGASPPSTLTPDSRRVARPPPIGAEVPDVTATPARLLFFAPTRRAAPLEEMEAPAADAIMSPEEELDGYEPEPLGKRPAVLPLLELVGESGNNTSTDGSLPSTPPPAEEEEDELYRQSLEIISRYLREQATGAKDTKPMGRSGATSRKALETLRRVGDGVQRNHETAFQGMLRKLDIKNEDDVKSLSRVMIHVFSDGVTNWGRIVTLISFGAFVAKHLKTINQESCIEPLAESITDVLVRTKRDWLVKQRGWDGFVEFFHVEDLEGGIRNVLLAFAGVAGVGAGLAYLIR

`COc1cccc(N2CCN(Cc3ccsc3)CC2)c1`: the IC50 on Bcl-2-like protein 10 was > 100 µM (inactive).
In the case of `Clc1ccc(Nc2nc(-c3cccs3)cs2)nc1`, the results for the EC50 in assay [1] and in assay [2] were > 67.5 µM (inactive) and 1.58 µM (active), respectively. Further, the “Absolute IC50 (XBP1)” value at X-box-binding protein 1 is 10 µM. Also, the CC50 in assay [3] is 8.33 µM (active). Moreover, in assay [4], the “Absolute IC50 (CHOP)” value was 10 µM. For the same molecule, at Protein skinhead-1, the IC50 was 13.6 µM (active).
Regarding `CC(=O)Nc1nc(=O)c2ccccc2s1`, the IC50 on Coagulation factor XII is > 50 µM (inactive).
Consider `COc1cccc(CNCCc2c[nH]c3ccccc23)c1OCc1ccc(F)cc1`, for which the results for the half-maximal inhibitory concentration (IC50) (in assay [5]; in the assay “cells [8]”; in assay [12]) were 2.56 µM (active), 16.4 µM (active) and 3.37 µM (active), respectively. Also, the CC50 in assay [6] is 13.4 µM (active); in assay [10] it was 15.6 µM (active); in assay [11] it was 9.79 µM (active). Also, the 50% effective concentration (EC50) in assay [7] was 5.74 µM (active); in assay [9], 6.39 µM (active).
As for `O=C(c1ccc(Cl)cc1)N1N=C(c2ccccn2)CC1(O)C(F)(F)F` (stereo not drawn), the CC50 is 13.3 µM (active) in [6]; 20.4 µM (active) in the assay on Vero; 32.6 µM (active) in assay [13]; 11.6 µM (active) in [10]; 15.2 µM (active) in assay [11]. Moreover, the IC50 in the assay “cells [8]” was 3.69 µM (active).
As to `Clc1ccc(-c2csc(N/N=C/c3cccnc3)n2)c(Cl)c1`, at X-box-binding protein 1, the “Absolute IC50 (XBP1)” value was 10 µM. Besides, the “Absolute IC50 (CHOP)” value in [4] is 10 µM.
Take `Cc1ccc(N=Nc2ccc(O)c(/C=N\NC(=O)c3ccc(N)cc3)c2)cc1C`: the EC50 in “cells [14]” and in the assay “cells [16]” was > 350 µM (not active) throughout. In addition, the IC50 on Bcl-2-like protein 10 is > 100 µM (inactive); in assay [15], 2.62 µM (active).

As a reminder, the IC50 is the point on the concentration scale where inhibition reaches its midpoint. For orientation: EC50 means the concentration at which the effect is half-maximal.

For the origin of these results see ChEMBL document CHEMBL1201862, “PubChem BioAssay data set” (2004).
